Measurements reported in patent US5294605A, “Amphiphilic peptide compositions and analogues thereof” (The Scripps Research Institute, priority 1991, dated 1994).
Where two headings read alike, the source gives them in different places. Square brackets hold non-standard residues; d marks the D form. Ends that are not written are not given here. Met(O) = CS(=O)CC[C@H](N)C(=O)O

What was measured:
Format in all cases: cell-based
[1] = system: Escherichia coli; settings: for Min. Inhibitory Concentration E. Coli: LB medium
Protocol: (§1) For the following Examples 3-9, antimicrobial assays were carried out in 96-well tissue culture plates. Each well was incubated with a given microorganism (Escherichia coli, Staphylococcus epidermidis, or Pseudomonas aeruginosa) suspended in LB medium. Upon the addition of the parent peptide having the structural formula hereinabove described, or its substitution analogues, or of Peptide I (dissolved in 1 X PBS, pH 7.0) each well contained a final cell density of 1.0×10^6 colony forming units (CFU)/ml. The final peptide concentrations ranged from 1.5 μg/ml to greater than 100 μg/ml.
(§2) Addition of peptides to the wells was defined as time zero. At twenty hours, the plates were placed in a Titertek Multiskan apparatus and the O.D.620 determined. The plates as well as the initial innoculum were incubated at 37° C.
(§3) Five wells per plate contained media alone, while five others contained medium plus cells. These controls were used to eliminate the possibility of media contamination while providing a measure of uninhibited growth of the microorganisms.
(§4) The degree of peptide activity was determined by comparing the substitution analogues with uninhibited growth of the control cells over a twenty-hour period.
(§5) as hereinabove described and analogues thereof wherein a methionine sulfoxide residue was substituted for various amino acid residues of the parent peptide were prepared as hereinabove described in Example 1 and tested for minimum inhibitory concentration with respect to E. coli, P. aeruginosa, and S. epidermidis at a concentration given in μg/ml, and for percent hemolysis of human red blood cells as hereinabove described in Example 2. The minimum inhibitory concentration and percent hemolysis (at a concentration of 100 μg/ml) are listed below in Table I. As used herein, the heading "Amino Acid Residue Substituted" refers to the number of the amino acid residue in the peptide which is substituted with a desired amino acid residue. All other residues remain the same as that of the normal peptide sequence. The term "Minimum Inhibitory Concentration" (MIC) as used herein indicates the minimum concentration of peptide in μg/ml needed to achieve 100 percent effective growth inhibition of the organism.

[2] = system: Pseudomonas aeruginosa; settings: for Min. Inhibitory Concentration P. Aeruginosa: LB medium
Protocol: as §1, §2, §3, §4, §5

[3] = system: Staphylococcus epidermidis; assay: Antimicrobial assay in 96-well plates, LB medium (Example 2), MIC; settings: for Min. Inhibitory Concentration S. epidemidia: Table VI, methionine sulfoxide diastereomer fractions
[4] = system: Escherichia coli; assay: Antimicrobial assay for deletion analogues (Example 10), MIC; settings: Table VII; 1.3×10^5 CFU/ml, 20 hours, LB medium
Protocol: (§6) For the deletion analogues of the parent peptide further described in Examples 11 and 12, antimicrobial assays were carried out in 96-well tissue culture plates. Each well was incubated with a given microorganism (Escherichia coli, Staphylococcus epidermidis, Pseudomonas aeruginosa, or Staphylococcus aureus) suspended in LB medium. Upon addition of the parent peptide or its deletion analogues (dissolved in 1×PBS<pH7.0), each well contained a final cell density of 1.3×10^5 colony forming units (CFU)/ml of E. coli, or 3.5×10^5 CFU/ml P.aeruginosa, or 3.9×10^5 CFU/ml S. Aureus or 3.0×10^5 CFU/ml S. epidermidis. The final peptide concentrations ranged from 1.5 μg/ml to greater than 100 μg/ml. Addition of peptide to the wells was defined as time zero. At twenty hours, the plates were placed in a Titertek Multiskan apparatus and the O.D. 620 determined. The plates as well as the initial innoculum were incubated at 37° C. Five wells per plate contained medium alone, whereas five others contained medium plus cells. These controls were used to eliminate the possibility of medium contamination, while providing a measure of uninhibited growth of the microorganisms. The degree of peptide activity was determined by comparing the deletion analogues with uninhibited growth of the control cells over a twenty-hour period. The effective growth inhibitation of the deletion analogues is listed in the examples and tables below.

[5] = system: Staphylococcus aureus; assay: as above; settings: Table VII; 3.9×10^5 CFU/ml, 20 hours, LB medium
Protocol: as §6

[6] = system: Pseudomonas aeruginosa; assay: as above; settings: Table VII; 3.5×10^5 CFU/ml, 20 hours, LB medium
Protocol: as §6

[7] = system: Staphylococcus epidermidis; assay: as above; settings: Table VII; 3.0×10^5 CFU/ml, 20 hours, LB medium
Protocol: as §6

[8] = Table II, lysine substitutions, 20 hours
[9] = Table VI, methionine sulfoxide diastereomer fractions, 20 hours
[10] = Table IV, analogues substituted at residues 4 and 11, 20 hours

Substance	Minimum Inhibitory Concentration E. coli [4] [µg/mL]	Minimum Inhibitory Concentration S. aureus [5] [µg/mL]	Minimum Inhibitory Concentration P. Aeruginosa [6] [µg/mL]	Minimum Inhibitory Concentration S. epidermidis [7] [µg/mL]	other results
Ac-LLKLLKKLLKKLKK [Peptide I]	–	–	–	–	Minimum Inhibitory Concentration against E.coli ([1]; 20 h): 10 µg/mL; Minimum Inhibitory Concentration against P.aeruginosa ([2]; 20 h): 5 µg/mL
Ac-LKLKKKLLKKLKKLLKKL-NH2 [4 (SEQ ID NO: 25)]	–	–	–	–	Min. Inhibitory Concentration S. epidermidis [3, 8]: 5 µg/mL; Min. Inhibitory Concentration E. Coli [1, 8]: 2.5 µg/mL; Min. Inhibitory Concentration P. Aeruginosa [2, 8]: 30 µg/mL
7 (SEQ ID NO: 11) 70/30: residue 7 methionine sulfoxide analogue, fraction by proportion of L-methionine-L-/D-sulfoxide (assignment undetermined) (LKLLKK[Met(O)]LKKLKKLLKKL; also: sulfoxide L-/D- 70/30 mixture, assignment undetermined)	–	–	–	–	Min. Inhibitory Concentration S. epidemidia ([3]; 20 hours): > 10 µg/mL; Min. Inhibitory Concentration E. Coli [1, 9]: 10 µg/mL; Min. Inhibitory Concentration P. Aeruginosa [2, 9]: > 5 µg/mL
Ac-KLLKKLLKKLKKLLKKL-NH2 [1 (X(SEQ ID NO: 46) --NH2)]	16	32	16 to 32	4	–
Ac-LKLLKKLLKKLKKLKKL-NH2 [14 (X(SEQ ID NO: 54) --NH2)]	8	32	8	2	–
Ac-LKLKKLLKKLKKLLKKL-NH2 [3 (X(SEQ ID NO: 48) --NH2)]	4	32 to 64	8	4	–
4 (SEQ ID NO: 8) 60/40: residue 4 methionine sulfoxide analogue, fraction by proportion of L-methionine-L-/D-sulfoxide (assignment undetermined) (LKL[Met(O)]KKLLKKLKKLLKKL; also: sulfoxide L-/D- 60/40 mixture, assignment undetermined)	–	–	–	–	Min. Inhibitory Concentration S. epidemidia ([3]; 20 hours): 5 µg/mL; Min. Inhibitory Concentration E. Coli [1, 9]: > 10 µg/mL; Min. Inhibitory Concentration P. Aeruginosa [2, 9]: 5 µg/mL
Ac-LKLLKLLKKLKKLLKKL-NH2 [5 (X(SEQ ID NO: 49) --NH2)]	8	64 to 128	32	2	–
4 (SEQ ID NO: 8) 50/50: residue 4 methionine sulfoxide analogue, fraction by proportion of L-methionine-L-/D-sulfoxide (assignment undetermined) (LKL[Met(O)]KKLLKKLKKLLKKL; also: sulfoxide L-/D- 50/50 mixture, assignment undetermined)	–	–	–	–	Min. Inhibitory Concentration S. epidemidia ([3]; 20 hours): 5 µg/mL; Min. Inhibitory Concentration E. Coli [1, 9]: 10 µg/mL; Min. Inhibitory Concentration P. Aeruginosa [2, 9]: 5 µg/mL
Ac-LKLLKKLLKKKKLLKKL-NH2 [11 (X(SEQ ID NO: 52) --NH2)]	64	256	8	2	–
Ac-KKLLKKLLKKLKKLLKKL-NH2 [1 (SEQ ID NO: 23)]	–	–	–	–	Min. Inhibitory Concentration S. epidermidis [3, 8]: 25 µg/mL; Min. Inhibitory Concentration E. Coli [1, 8]: 5 µg/mL; Min. Inhibitory Concentration P. Aeruginosa [2, 8]: 30 µg/mL
Ac-LKLLKKLLKKLKKLLKL-NH2 [16 (X(SEQ ID NO: 55) --NH2)]	8	32	16	4	–
11 (SEQ ID NO: 15) 20/80: residue 11 methionine sulfoxide analogue, fraction by proportion of L-methionine-L-/D-sulfoxide (assignment undetermined) (LKLLKKLLKK[Met(O)]KKLLKKL; also: sulfoxide L-/D- 20/80 mixture, assignment undetermined)	–	–	–	–	Min. Inhibitory Concentration S. epidemidia ([3]; 20 hours): 2.5 µg/mL; Min. Inhibitory Concentration E. Coli [1, 9]: 10 µg/mL; Min. Inhibitory Concentration P. Aeruginosa [2, 9]: 5 µg/mL
Ac-LKLLKKLLKKLKLLKKL-NH2 [12 (X(SEQ ID NO: 53) --NH2)]	8	32	8	4	–
Ac-LKKLKKLLKKLKKLLKKL-NH2 [3 (SEQ ID NO: 24)]	–	–	–	–	Min. Inhibitory Concentration S. epidermidis [3, 8]: 10 µg/mL; Min. Inhibitory Concentration E. Coli [1, 8]: 5 µg/mL; Min. Inhibitory Concentration P. Aeruginosa [2, 8]: 30 µg/mL
Ac-LKLKKKLLKKMKKLLKKL-NH2 [Analogue 8]	–	–	–	–	Min. Inhibitory Concentration S. epidermidis [3, 10]: 5 µg/mL; Min. Inhibitory Concentration E. Coli [1, 10]: 5 µg/mL; Min. Inhibitory Concentration P. Aeruginosa [2, 10]: 5 µg/mL
Ac-LKLLKKLLKKLKKLLKK-NH2 [18 (X(SEQ ID NO: 56) --NH2)]	16	32	8	2	–
11 (SEQ ID NO: 15) 70/30: residue 11 methionine sulfoxide analogue, fraction by proportion of L-methionine-L-/D-sulfoxide (assignment undetermined) (LKLLKKLLKK[Met(O)]KKLLKKL; also: sulfoxide L-/D- 70/30 mixture, assignment undetermined)	–	–	–	–	Min. Inhibitory Concentration S. epidemidia ([3]; 20 hours): 2 µg/mL; Min. Inhibitory Concentration E. Coli [1, 9]: 10 µg/mL; Min. Inhibitory Concentration P. Aeruginosa [2, 9]: 2.5 µg/mL
Ac-LLLKKLLKKLKKLLKKL-NH2 [2 (X(SEQ ID NO: 47) --NH2)]	8 to 16	32 to 64	16 to 32	4	–
7 (SEQ ID NO: 11) 20/80: residue 7 methionine sulfoxide analogue, fraction by proportion of L-methionine-L-/D-sulfoxide (assignment undetermined) (LKLLKK[Met(O)]LKKLKKLLKKL; also: sulfoxide L-/D- 20/80 mixture, assignment undetermined)	–	–	–	–	Min. Inhibitory Concentration S. epidemidia ([3]; 20 hours): > 10 µg/mL; Min. Inhibitory Concentration E. Coli [1, 9]: 5 µg/mL; Min. Inhibitory Concentration P. Aeruginosa [2, 9]: > 5 µg/mL
Ac-LKLLKKLLKLKKLLKKL-NH2 [9 (X(SEQ ID NO: 51) --NH2)]	8	64	16	4	–
Ac-LKLLKKLKKLKKLLKKL-NH2 [7 (X(SEQ ID NO: 50) --NH2)]	4	64	4 to 8	2	–
